Laboratory results published in patent US9492398B2, “Nanocapsulation of essential oils for preventing or curing infectious diseases alone or with an antibiotic” (Eydo Pharma, priority 2011, dated 2016).
Converted amounts (≈) assume the structure as drawn. Read-outs that look alike come from different tables or passages of the source.

Assays:
[1] = from the literature; cited from earlier work
E. aerogenes 0705A0867 = assay: Minimal inhibitory concentration on Muller-Hinton agar; type: cell-based; conditions: for Minimal Inhibitory Concentration: E. aerogenes 0705A0867; for MIC: Klebsiella aerogenes
Method: (§1) The essential oils were also tested individually for their minimal inhibitory concentration.
(§2) The solution was first prepared at 40% in DMSO before being placed on the Muller-Hinton agar in the following manner in Table VIII:
(§3) Twenty-two different microorganisms were tested and their minimal inhibitory concentration was tested.

S. aureus 0706C0025 = assay: as above; type: cell-based; conditions: for Minimal Inhibitory Concentration: S. aureus 0706C0025; for MIC: Staphylococcus aureus
Method: as §1, §2, §3

S. aureus 0701A0095 = assay: as above; type: cell-based; conditions: for MIC: Staphylococcus aureus
Method: as §1, §2, §3

E. coli 0705A0434 = assay: as above; type: cell-based; conditions: for Minimal Inhibitory Concentration: E. coli 0705A0434; for MIC: Escherichia coli
Method: as §1, §2, §3

A. baumanni AYE = assay: as above; type: cell-based
Method: as §1, §2, §3

Salmonell enteritidis 4 = assay: as above; type: cell-based
Method: as §1, §2, §3

S. aureus ATC25923 = assay: as above; type: cell-based; conditions: for Minimal Inhibitory Concentration: S. aureus ATC25923; for MIC: Staphylococcus aureus
Method: as §1, §2, §3

S. aureus 0702E0196 = assay: as above; type: cell-based; conditions: for Minimal Inhibitory Concentration: S. aureus 0702E0196; for MIC: Staphylococcus aureus
Method: as §1, §2, §3

A. baumanni 12 = assay: as above; type: cell-based; conditions: read-out: Minimal Inhibitory Concentration
Method: as §1, §2, §3

S. aureus 0703H0036 = assay: as above; type: cell-based; conditions: for Minimal Inhibitory Concentration: S. aureus 0703H0036; for MIC: Staphylococcus aureus
Method: as §1, §2, §3

K. oxyloca 0705C0187 = assay: as above; type: cell-based
Method: as §1, §2, §3

A. baumanni CIP7034 = assay: as above; type: cell-based
Method: as §1, §2, §3

P. aeroginosa 0704C0134 = assay: as above; type: cell-based
Method: as §1, §2, §3

A. baumanni SAN008 = assay: as above; type: cell-based
Method: as §1, §2, §3

P. aeroginosa 0703C0259 = assay: as above; type: cell-based
Method: as §1, §2, §3

A. baumanni CIP107292 = assay: as above; type: cell-based
Method: as §1, §2, §3

E. cloacae 0705A1743 = assay: as above; type: cell-based
Method: as §1, §2, §3

P. aeroginosa ATCC27853 = assay: as above; type: cell-based; conditions: read-out: Minimal Inhibitory Concentration
Method: as §1, §2, §3

A. baumanni CIP5377 = assay: as above; type: cell-based; conditions: read-out: Minimal Inhibitory Concentration
Method: as §1, §2, §3

A. baumanni RCH = assay: as above; type: cell-based; conditions: read-out: Minimal Inhibitory Concentration
Method: as §1, §2, §3

E. coli ATCC25922 = assay: as above; type: cell-based
Method: as §1, §2, §3

CO[C@@H]1[C@@H](O[C@@H]2O[C@H](C)[C@@H](O[C@H]3C[C@@](C)(O)[C@@H](OC(=O)CC(C)C)[C@H](C)O3)[C@H](N(C)C)[C@H]2O)[C@@H](CC=O)C[C@@H](C)[C@@H](O)/C=C/C=C/C[C@@H](C)OC(=O)C[C@H]1OC(C)=O [Josamycin]
LD50 in mice by intraperitoneal injection [1]: 780 mg/kg

CCN1CCN(C(=O)N[C@@H](C(=O)N[C@@H]2C(=O)N3[C@@H]2SC(C)(C)[C@@H]3C(=O)O)c2ccccc2)C(=O)C1=O [Piperacillin]
LD50 in mice by intraperitoneal injection [1]: 9970 mg/kg

CN(C)[C@@H]1C(O)=C(C(N)=O)C(=O)[C@@]2(O)C(O)=C3C(=O)c4c(O)ccc(Cl)c4[C@@H](O)[C@H]3C[C@@H]12 [Demeclocyclin]
LD50 in mice by intraperitoneal injection [1]: 120 mg/kg

CC[C@H]1OC(=O)[C@H](C)[C@@H](O[C@H]2C[C@@](C)(OC)[C@@H](O)[C@H](C)O2)[C@H](C)[C@@H](O[C@@H]2O[C@H](C)C[C@H](N(C)C)[C@H]2O)[C@](C)(O)C[C@@H](C)C(=O)[C@H](C)[C@@H](O)[C@]1(C)O [Erythromycin]
LD50 in mice by intraperitoneal injection [1]: 280 mg/kg

[H]/N=C(/N)N[C@H]1[C@H](O)[C@@H](O)[C@H](O[C@@H]2O[C@@H](C)[C@](O)(C=O)[C@H]2O[C@@H]2O[C@@H](CO)[C@H](O)[C@@H](O)[C@@H]2NC)[C@@H](N/C(N)=N\[H])[C@@H]1O [Streptomycin]
LD50 in mice by intraperitoneal injection [1]: 525 mg/kg

O=C/C=C/c1ccccc1 [trans cinnamaldehyde]
Minimal Inhibitory Concentration (E. aerogenes 0705A0867): 2 mg/mL | MIC (E. aerogenes 0705A0867; 0705A0867, E. aerogenes 0705A0867, read-out: Minimal Inhibitory Concentration): 1000 µg/mL (≈ 7.57 mM) | Minimal Inhibitory Concentration (S. aureus 0706C0025): 0.5 mg/mL | MIC (S. aureus 0706C0025; 0706C0025, S. aureus 0706C0025, read-out: Minimal Inhibitory Concentration): 750 µg/mL (≈ 5.67 mM) | Minimal Inhibitory Concentration (S. aureus 0701A0095; S. aureus 0701A0095): 1.5 mg/mL | MIC (S. aureus 0701A0095; 0701A0095, S. aureus 0701A0095, read-out: Minimal Inhibitory Concentration): 750 µg/mL (≈ 5.67 mM) | Minimal Inhibitory Concentration (E. coli 0705A0434): 2 mg/mL | MIC (E. coli 0705A0434; 0705A0434, E. coli 0705A0434, read-out: Minimal Inhibitory Concentration): 1000 µg/mL (≈ 7.57 mM) | Minimal Inhibitory Concentration (A. baumanni AYE; A. baumanni AYE): 2 mg/mL | MIC (A. baumanni AYE; A. baumanni AYE, read-out: Minimal Inhibitory Concentration): 1000 µg/mL (≈ 7.57 mM) | Minimal Inhibitory Concentration (Salmonell enteritidis 4; Salmonell enteritidis 4): 2 mg/mL | MIC (Salmonell enteritidis 4; Salmonell enteritidis 4, read-out: Minimal Inhibitory Concentration): 1000 µg/mL (≈ 7.57 mM) | Minimal Inhibitory Concentration (S. aureus ATC25923): 1.5 mg/mL | MIC (S. aureus ATC25923; ATC25923, S. aureus ATC25923, read-out: Minimal Inhibitory Concentration): 750 µg/mL (≈ 5.67 mM) | Minimal Inhibitory Concentration (S. aureus 0702E0196): 1.5 mg/mL | MIC (S. aureus 0702E0196; 0702E0196, S. aureus 0702E0196, read-out: Minimal Inhibitory Concentration): 1000 µg/mL (≈ 7.57 mM) | MIC (A. baumanni 12; A. baumanni 12): 1000 µg/mL (≈ 7.57 mM) | Minimal Inhibitory Concentration (S. aureus 0703H0036): 1.5 mg/mL | MIC (S. aureus 0703H0036; 0703H0036, S. aureus 0703H0036, read-out: Minimal Inhibitory Concentration): 750 µg/mL (≈ 5.67 mM) | Minimal Inhibitory Concentration (K. oxyloca 0705C0187; K. oxyloca 0705C0187): 2 mg/mL | MIC (K. oxyloca 0705C0187; K. oxyloca 0705C0187, read-out: Minimal Inhibitory Concentration): 1000 µg/mL (≈ 7.57 mM) | MIC (A. baumanni CIP7034; A. baumanni CIP7034, read-out: Minimal Inhibitory Concentration): 1000 µg/mL (≈ 7.57 mM) | Minimal Inhibitory Concentration (P. aeroginosa 0704C0134; P. aeroginosa 0704C0134): 2 mg/mL | MIC (P. aeroginosa 0704C0134; P. aeroginosa 0704C0134, read-out: Minimal Inhibitory Concentration): 1000 µg/mL (≈ 7.57 mM) | Minimal Inhibitory Concentration (A. baumanni SAN008; A. baumanni SAN008): 2 mg/mL | MIC (A. baumanni SAN008; A. baumanni SAN008, read-out: Minimal Inhibitory Concentration): 1000 µg/mL (≈ 7.57 mM) | MIC (P. aeroginosa 0703C0259): 1500 µg/mL (≈ 11.3 mM) | Minimal Inhibitory Concentration (P. aeroginosa 0703C0259): 2 mg/mL

Cc1ccc(C(C)C)cc1O [carvacrol]
Minimal Inhibitory Concentration (E. aerogenes 0705A0867): 2 mg/mL | MIC (E. aerogenes 0705A0867; 0705A0867, read-out: Minimal Inhibitory Concentration, E. aerogenes 0705A0867): 1500 µg/mL (≈ 9.99 mM) | Minimal Inhibitory Concentration (A. baumanni CIP107292; A. baumanni CIP107292): 1.5 mg/mL | MIC (A. baumanni CIP107292; read-out: Minimal Inhibitory Concentration, A. baumanni CIP107292): 1000 µg/mL (≈ 6.66 mM) | Minimal Inhibitory Concentration (E. cloacae 0705A1743; E. cloacae 0705A1743): 2 mg/mL | MIC (E. cloacae 0705A1743; Enterobacter cloacae, 0705A1743, read-out: Minimal Inhibitory Concentration, E. cloacae 0705A1743): 1500 µg/mL (≈ 9.99 mM) | Minimal Inhibitory Concentration (S. aureus 0706C0025): 2 mg/mL | MIC (S. aureus 0706C0025; 0706C0025, read-out: Minimal Inhibitory Concentration, S. aureus 0706C0025): 1500 µg/mL (≈ 9.99 mM) | MIC (S. aureus 0701A0095; 0701A0095, read-out: Minimal Inhibitory Concentration): 1500 µg/mL (≈ 9.99 mM) | Minimal Inhibitory Concentration (E. coli 0705A0434): 2 mg/mL | MIC (E. coli 0705A0434; 0705A0434, read-out: Minimal Inhibitory Concentration, E. coli 0705A0434): 1500 µg/mL (≈ 9.99 mM) | Minimal Inhibitory Concentration (A. baumanni AYE; A. baumanni AYE): 1.5 mg/mL | MIC (A. baumanni AYE; read-out: Minimal Inhibitory Concentration, A. baumanni AYE): 1000 µg/mL (≈ 6.66 mM) | MIC (P. aeroginosa ATCC27853): 7500 µg/mL (≈ 49.9 mM) | MIC (A. baumanni CIP5377): 1000 µg/mL (≈ 6.66 mM) | MIC (A. baumanni RCH): 1000 µg/mL (≈ 6.66 mM) | Minimal Inhibitory Concentration (E. coli ATCC25922; E. coli ATCC25922): 2 mg/mL | MIC (E. coli ATCC25922; Escherichia coli, ATCC25922, read-out: Minimal Inhibitory Concentration, E. coli ATCC25922): 1500 µg/mL (≈ 9.99 mM) | Minimal Inhibitory Concentration (Salmonell enteritidis 4; Salmonell enteritidis 4): 2.5 mg/mL | MIC (Salmonell enteritidis 4; read-out: Minimal Inhibitory Concentration, Salmonell enteritidis 4): 2000 µg/mL (≈ 13.3 mM) | Minimal Inhibitory Concentration (S. aureus ATC25923): 0.75 mg/mL | MIC (S. aureus ATC25923; ATC25923, read-out: Minimal Inhibitory Concentration, S. aureus ATC25923): 1500 µg/mL (≈ 9.99 mM) | Minimal Inhibitory Concentration (S. aureus 0702E0196): 1 mg/mL | MIC (S. aureus 0702E0196; 0702E0196, read-out: Minimal Inhibitory Concentration, S. aureus 0702E0196): 1500 µg/mL (≈ 9.99 mM) | MIC (A. baumanni 12): 1500 µg/mL (≈ 9.99 mM) | Minimal Inhibitory Concentration (S. aureus 0703H0036): 2 mg/mL | MIC (S. aureus 0703H0036; 0703H0036, read-out: Minimal Inhibitory Concentration, S. aureus 0703H0036): 1500 µg/mL (≈ 9.99 mM) | Minimal Inhibitory Concentration (K. oxyloca 0705C0187; K. oxyloca 0705C0187): 2 mg/mL | MIC (K. oxyloca 0705C0187; read-out: Minimal Inhibitory Concentration, K. oxyloca 0705C0187): 1500 µg/mL (≈ 9.99 mM) | Minimal Inhibitory Concentration (A. baumanni CIP7034; A. baumanni CIP7034): 1.5 mg/mL | MIC (A. baumanni CIP7034; read-out: Minimal Inhibitory Concentration, A. baumanni CIP7034): 1000 µg/mL (≈ 6.66 mM) | Minimal Inhibitory Concentration (P. aeroginosa 0704C0134; P. aeroginosa 0704C0134): 5 mg/mL | MIC (P. aeroginosa 0704C0134; read-out: Minimal Inhibitory Concentration, P. aeroginosa 0704C0134): 2500 µg/mL (≈ 16.6 mM) | Minimal Inhibitory Concentration (A. baumanni SAN008; A. baumanni SAN008): 1.5 mg/mL | MIC (A. baumanni SAN008; read-out: Minimal Inhibitory Concentration, A. baumanni SAN008): 1000 µg/mL (≈ 6.66 mM)

Gentamicin
LD50 in mice by intraperitoneal injection [1]: 245 mg/kg
